Laboratory results taken from patent publication US20060106099A1, “Novel inhibitors of ubiquitin isopeptidases” (priority 2002, published 2006).
Read-outs that look alike come from different tables or passages of the source.

Experiments:
HCT 116 (p53 wt) = test: MTS cytotoxicity, HCT 116 (p53 wt); type: cell-based; conditions: Homo sapiens, 48 h
Description: (§1) Cytotoxicity in Human Colon Tumor (HCT) Cell Lines. To determine if punaglandins elicit cytotoxicity independently of the tumor-suppressor p53, as do other dienone prostaglandins, several cytotoxicity assays were employed. First, cell death effects of all isolated punaglandins were investigated in pairs of isogenic colon cancer cell lines, the HCT 116^+/+ competent cell line and HCT 116^−/− null cell lines. HCT 116^+/+ cells are homozygous for p53^+/+ and p21^+/+; where as, HCT 116^−/− cells lack both alleles for p53 (p53^−/−) or p21 (p21^−/−).
(§2) Each cell line was seeded simultaneously in 96-well plates and incubated for 24 h before treatment with individual punaglandins at various concentrations for 48 additional h. Cytotoxicity was determined using MTS and absorbances were recorded at 490 nm. Half maximal effective concentrations (EC50) and Log EC50s were calculated from a concentration-response curve generated using GraphPad Prism (Table 1).

HCT 116 (p21^−/−) = test: MTS cytotoxicity, HCT 116 (p21−/−); type: cell-based; conditions: Homo sapiens, log of EC50 in μM, 48 h, read-out: Log EC50 +/− Standard Error of Log EC50, HCT 116 (p21−/−) (converted)
Description: as §1, §2

ubiquitin isopeptidases = test: In vivo isopeptidase activity after treatment of RKO cells, Ub-PEST; type: cell-based, human
Protocol: Isopeptidase Assay. It was hypothesized that the punaglandins would inhibit ubiquitin-isopeptidase activity of the proteasome pathway as does the prostaglandin, Δ^12-PGJ2 (1), but with greater potency because of the chlorinated C-10. To validate this theory, cellular isopeptidase enzymatic activity was measured in vitro after treatment with individual punaglandins, PNG 2 (6), PNG 3 (7), and Z-PNG 4 (9) and in vivo after individual treatment with PNG 4 (8) and PNG 6 (10). This activity was determined utilizing the simple isopeptidase substrate, ubiquitin-PEST (Ub-PEST), a full/length ubiquitin (Ub) molecule fused with an 18-amino acid C-terminal peptide extension that most isopeptidases use as a substrate. The polypeptide extension contains regions rich in Pro (P), Glu (E), Ser (S), and Thr (T) residues called PEST motifs that are responsible for rapid degradation of these and other unstable proteins. Ub isopeptidases specifically cleave this peptide extension, yielding free, full-length Ub. Both the fused Ub-PEST (10.5 kDa) and the cleaved, free Ub (8.5 kDa) can be observed via immunochemical detection.
In vivo Isopeptidase Activity. To investigate whether punaglandins can inhibit isopeptidase activity in vivo, isopeptidase activity was analyzed after punaglandin treatment of RKO cells. PNG 4 (8) and PNG 6 (10) were selected for in vivo investigation because they differ only in enone functionality, where (8) is a dienone and (10) an enone. RKO cells were incubated with 1 μM, 4 μM, or 7 μM of PNG 4 (8) and PNG 6 (10). […] As a positive control, cells were treated with a known isopeptidase inhibitor, shikoccin (SK). After 6 h drug treatment, cells were lysed and protein concentration adjusted to 0.3 mg/mL per sample. Each sample was subsequently incubated with 50 μg/mL of Ub-PEST. The reaction was terminated after 20 min and the respective amounts of Ub-PEST (10 kDa) and free Ub product (8.5 kDa) were determined by SDS-PAGE fractionation.

p53 = p53 accumulation ratio in RKO-E6 and RKO cells, punaglandin study; type: cell-based, human; conditions: 7 μM, 6 h
Protocol: To determine if punaglandins inhibit p53 degradation by disrupting the proteasome pathway, the accumulation ratio of p53 was determined in RKO and RKO-E6 cells treated with selected punaglandins, PNG 4 (8) and PNG 6 (10). Equally seeded RKO and RKO-E6 cells were treated with vehicle (0.5% DMSO), 50 μM Etoposide, 60 μM PGA2 (3), 7 μM PNG 6 (10), and 7 μM PNG 4 (8). After 6 h incubation with vehicle or drug, cells were lysed and harvester. […] of protein from each lysate was fractionated by SDS-PAGE and probed for p53 protein. The p53 band intensities were then analyzed and quantitated using densitometry. The ratio of p53 in RKO-E6 to RKO cells was calculated by dividing the amount of p53 in RKO-E6 cells by the amount in RKO cells and multiplying by 100 to give percent

RKO-E6 = test: MTS cytotoxicity, RKO-E6 cells; type: cell-based; conditions: Homo sapiens, RKOE6, log of EC50 in μM, 48 h, read-out: Log EC50 +/− Standard Error of Log EC50, RKO-E6 (converted)
Protocol: (§3) Cytotoxicity in Human Colon Tumor (RKO) Cell Lines. Punaglandins (8) and (10) were also assayed for p53-independent cytotoxicity in RKO and RKO-E6 cells. Each cell line was seeded simultaneously in 96-well plates and incubated for 24 h before treatment with PNG 4 (8) and PNG 6 (10) at various concentrations for 48 h. Cytotoxicity was determined using MTS and absorbances were recorded at 490 nm. Log EC50s and EC50s were calculated from a concentration-response curve generated using GraphPad Prism (Table 2).

RKO = test: MTS cytotoxicity, RKO cells; type: cell-based; conditions: Homo sapiens, 48 h
Protocol: as §3

HCT 116 (p53^−/−) = test: MTS cytotoxicity, HCT 116 (p53−/−); type: cell-based; conditions: Homo sapiens, log of EC50 in μM, 48 h, read-out: Log EC50 +/− Standard Error of Log EC50, HCT 116 (p53−/−) (converted)
Description: as §1, §2

HCT 116 (p21 wt) = test: MTS cytotoxicity, HCT 116 (p21 wt); type: cell-based; conditions: Homo sapiens, log of EC50 in μM, 48 h, read-out: Log EC50 +/− Standard Error of Log EC50, HCT 116 (p21 wt) (converted)
Description: as §1, §2

caspase-3 = test: Caspase-3 activity in RKO cells (DEVD-AMC); type: cell-based, human; conditions: PNG 4 0.5 μM, PNG 6 1 μM, Taxol 1 μM
Protocol: To determine if selected punaglandins, PNG 4 (8) and PNG 6 (10) also induce apoptosis in RKO cells in a time dependent manner, caspase-3 activity was determined. During apoptosis the caspases, a family of cysteinyl aspartate-specific proteases, are activated. These enzymes cleave specific substrates resulting in biochemical and morphological changes associated with apoptosis. Therefore, detection of activated caspases can be used as a biochemical marker for apoptosis. Caspase-3 has substrate specificity for the amino acid sequence Asp-Glu-Val-Asp (DEVD), cleaving after Asp, and therefore caspase activity can be measured by monitoring cleavage of the substrate DEVD-AMC (Asp-Glu-Val-Asp-7-amino-4-[…]).
RKO cells were treated for 4, 8, and 12 h with PNG 4 (8) at 0.5 μM and PNG 6 (10) at 1 μM. Taxol, a known apoptotic inducer at 1 μM, was used as a positive control, and negative control cells were treated with vehicle (0.5% DMSO). Caspase-3 activity rose steadily as expected from 4-12 h in cells treated with PNG 4 (8), PNG 6 (10), and Taxol but remained constant in the untreated control cells.

CCCCC/C=C\C[C@@]1(O)C=C(Cl)C(=O)/C1=C/[C@H](OC(C)=O)[C@H](CCCC(=O)OC)OC(C)=O [PNG 4]
EC50 (HCT 116 (p53 wt); average over the three compounds, read-out: average EC50 of PNG 3, PNG 4 and PNG 6, cytotoxicity in HCT 116 cell lines): ~0.35 µM
EC50 (HCT 116 (p53 wt); log of EC50 in μM, read-out: Log EC50 +/− Standard Error of Log EC50, HCT 116 (p53 wt) (converted)): 0.331 µM
EC50 (HCT 116 (p21^−/−)): 0.282 µM
Ub-Pest degradation, % of the control (densitometry) (ubiquitin isopeptidases; 7 μM, 6 h): 67%
concentration of noticeable inhibition of Ub-PEST degradation (ubiquitin isopeptidases; 6 h treatment): 7 µM
accumulation of p53 in RKO and RKO-E6 cells (p53): showed enhanced accumulation of p53
EC50 (RKO-E6): 0.372 µM
EC50 (RKO; read-out: EC50 in RKO cell lines, punaglandins): 0.31 µM
EC50 (RKO; log of EC50 in μM, read-out: Log EC50 +/− Standard Error of Log EC50, RKO (converted)): 0.309 µM
EC50 (HCT 116 (p53^−/−)): 0.355 µM
EC50 (HCT 116 (p21 wt)): 0.339 µM
Caspase-3 activity from 4-12 h (caspase-3): rose steadily
